Values of other authors, collected in patent US20090005322A1, “Physiologically- Active Composition Based on Collagen” (priority 2004, published 2009).

Test system: human peripheral polymorphonuclear leucocytes

Structure (SMILES): C[C@@H]1O[C@@H](O[C@@H]2[C@@H](O)[C@H](OCCc3ccc(O)c(O)c3)O[C@H](CO)[C@H]2OC(=O)/C=C/c2ccc(O)c(O)c2)[C@H](O)[C@H](O)[C@H]1O [Acteoside, acteoside]
- formation of eicosatetraenoic acid derivatives (5-HET): inhibits
- formation of leucotriene B4: inhibits
